Results taken from patent US9040261B2, “Compounds as L-cystine crystallization inhibitors and uses thereof” (NEW YORK UNIVERSITY, priority 2009, dated 2015).
“Also recorded” adds a separate entry of the source. Marks after values point to notes of the source that are not given here.

What was measured:
[1] = AFM step velocity and hillock imaging with L-cystine diesters under continuous flow
Procedure: Atomic force microscopy was performed with a Digital Instruments (Santa Barbara, Calif.) Nanoscope Ma Multimode system. All measurements were performed in a cell designed to contain liquids for in situ imaging, including step velocity measurements. All measurements were performed in contact mode using Veeco NP_B Si3N4 tips on silicon nitride cantilevers with a spring constant of 0.12N/m (triangular, 196 μm length, 41 μm width). L-cystine crystals (hexagonal form) were transferred onto an AFM specimen disk coated with partially cured (1 hr) UV-curable optical cement (Type SK-9, EMS Acquisition Corp.) by gently pressing the disk against hexagonal platelets collected by filtration (Whatman Nuclepore membrane, 8 μm). The (001) faces of the hexagonal plates naturally aligned parallel with the specimen disk such that the velocity of the equivalent {100} steps could be measured readily by AFM. The partially cured polymer with the adhered crystals was cured completely by additional UV radiation (2 hrs) prior to analysis. The mounted L-cystine crystals were etched slightly by immersion in deionized water for 30 sec at 60° C. to remove amorphous deposits or impurities that may be present on the surface. Step velocities on the hexagonal L-cystine crystals were measured by AFM using a fluid cell containing an aqueous solution, supersaturated with L-cystine (2 mM), introduced to the cell via a syringe. Step velocities were determined by measuring the distance of the steps from a reference point, usually the dislocation core, in consecutive deflection images acquired at periodic intervals, ranging from 9-14 sec. Measurements were acquired under continuous flow of fresh solution in order to maintain constant supersaturation and additive concentration. […] The step velocities, which correspond to the crystal growth rates, were measured with and without inhibitor for each pair.

[2] = Bulk crystallization of L-cystine in the presence of additives (mass yield); conditions: for Yield (%) = (collected mass by filtration, >11 μm)/(total mass added) × 100%: 2 mg/L additive, 0.7 g/L L-cystine (pH 6.8), no additive 80, approximate error ±8%, Dihydrochloride
Procedure: Alternately, the hexagonal crystals can be obtained by crystallization performed near neutral pH (Sa) The hexagonal form was crystallized from a supersaturated L-cystine solution prepared by adding 70 mg of L-cystine to 100 mL of deionized water (3 mM), and heating under reflux at 100° C. for 20 min with stirring to completely dissolve L-cystine. […] This concentration was used for bulk crystallization studies in the presence of additives so that a measurable amount of bulk crystals could be obtained in a reasonable time. The solution was then allowed to cool slowly with stirring for 75 min. 30 mL aliquots were transferred to separate glass containers, which were then sealed to prevent evaporation and exposure to airborne particulates and stored for 72 hours at room temperature without stirring. […] The crystals retrieved in this manner were used for AFM studies by mounting individual crystals according to the procedure described below.
Various proteins, poly-amino acids, and molecular mimics of L-cystine were examined as additives. The aforementioned procedure for hexagonal platelet crystallization was repeated. Following the 75 min cooling period, prior to any observable crystallization, the additive was added to the supersaturated L-cystine solution to the desired concentration. […] Crystallization without additive was performed in an identical manner for comparison using a control solution from the same batch. The mass yields of L-cystine crystals were obtained by dividing the mass of L-cystine crystals (collected from growth solution by filtration) by the mass of L-cystine added in the growth solution.
Additives chosen for these studies were various proteins, poly-amino acids, and molecular mimics of L-cystine (see Table 1). The above procedure for hexagonal platelet crystallization was repeated until completion of the 75 min cooling period, at which point 29.5 g of solution was transferred to a 100 mL beaker containing 0.5 g of separately prepared additive solution to yield net concentrations of 2 mg/L additive and 0.7 g/L L-cystine. Additive solutions were replaced with deionized water of equivalent volume for control measurements. […]
L-cystine bulk crystallization was investigated in the presence of various polymers, urinary constituents, fish antifreeze proteins (AFPs), and L-cystine derivatives (i.e. structural mimics of L-cystine), which were analyzed as possible growth inhibitors of hexagonal L-cystine. The potency of each additive was assessed by comparing the difference in crystal yield (Table 1), which is equal to the mass of crystals formed in the presence of 2 mg/L additive (isolated with […]) divided by the total mass of L-cystine (700 mg/L).

[3] = dosages between 100 mg/L and 20 g/L per day; ATP, reactive oxygen species levels, cell viability; cited from earlier work
[4] = Crystal size and habit by optical microscopy and SEM after bulk crystallization with additive
Procedure: Various proteins, poly-amino acids, and molecular mimics of L-cystine were examined as additives. The aforementioned procedure for hexagonal platelet crystallization was repeated. Following the 75 min cooling period, prior to any observable crystallization, the additive was added to the supersaturated L-cystine solution to the desired concentration. The container was sealed and stored for 72 hours at room temperature without stirring, after which the precipitate was collected by vacuum filtration (Whatman Grade 1 filters, >11 μm pores) and were air dried prior to analysis. Crystallization without additive was performed in an identical manner for comparison using a control solution from the same batch. The mass yields of L-cystine crystals were obtained by dividing the mass of L-cystine crystals (collected from growth solution by filtration) by the mass of L-cystine added in the growth solution. The crystals were isolated with 11 μm-pore filters, which were regarded as sufficiently small for reliable capture of the crystals (optical micrographs reveal that the size of crystals was always greater than 50 μm
An Orion 3 Star pH meter (Thermo Electron Corp.) with Orion 9157BNMD probe was used to measure the pH of L-cystine solutions. Crystal morphology was measured with a Leitz ERGOLUZ optical microscope and a Hitachi 3500 scanning electron microscopy. A thin coating of gold (2 nm) was sputtered on SEM samples and images were acquired at low voltage (2-5 kV) to minimize sample melting. ^1H NMR spectra were recorded using a Bruker AVANCE 400 spectrometer and were routinely run using broadband decoupling. Chemical shifts (δ), expressed in ppm, are referenced to the corresponding residual nuclei in deuterated solvent (D2O). Powder X-ray diffraction (XRD) patterns of isolated crystals were acquired with a Panalytical XPert PRO MPD using a Bragg-Brentano geometry with fixed slits at power settings of 45 kV and 40 mA. A CuKa radiation (0.154 nm) source was used with a 1 degree fixed divergence slit (10 mm beam mask) for incident X-rays and a 1 degree anti-scatter slit Ni filter ( 1/16 degree receiving slit) for diffracted X-rays.

## COC(=O)[C@@H](N)CSSC[C@H](N)C(=O)OC.Cl.Cl [CDME, Cystine Dimethyl Ester Dihydrochloride]
[1]; 0.015 mM inhibitor, 2 mM L-cystine
  order of step roughening, corresponding to the trend in inhibition: L-CDME>L-CDEE>L-CDIE>L-CDTE
[1]; 0.015 M inhibitor
  inhibition of step velocity compared among four L-cystine diesters: best inhibitor
[2]; 2 mM L-cystine
  CDME concentration sufficient to inhibit in vitro L-cystine crystallization: ~25 mg/L
[2]
  Yield (%) = (collected mass by filtration, >11 μm)/(total mass added) × 100%: 13%
[2]; listed as L-cystine dimethyl ester
  Yield (%) = (collected mass by filtration, >11 μm)/(total mass added) × 100%: 13* %
[2]; 25 mg/L CDME in supersaturated L-cystine, 8 μm filter pores
  CDME amount sufficient to suppress crystallization: 3 wt %
[2]; CDME concentration approaching 5 mg/L
  mass yield of needles less than the yield of platelets in the absence of additive: more than 70%
[2]; extrapolated from 2 mM to physiological urine L-cystine (~0.4 mM)
  CDME dosage that may be sufficient to inhibit in vivo L-cystine crystallization: less than 4 mg/L
[3]
  toxicity in cell culture and in vivo animal studies: possible adverse affects
[4]
  needle volume less than hexagonal platelets: ~100 times
[4]; 1.7 mg/L CDME, 700 mg/L L-cystine, without additive 200-400 μm
  size of hexagonal platelets: 50-100 μm
[4]; 25 mg/L (3 wt %) CDME, Dihydrochloride
  number of needles collected: negligible; also recorded: Trace number of needles
